Read-outs that look alike come from different tables or passages of the source.
Key:
[1] = biological target: T1, maize enzyme cytokinin oxidase/dehydrogenase 1 (ZmCKX1) (Zea mays, UniProt Q9T0N8); assay: ZmCKX1 inhibition, PMS/MTT assay; type: biochemical
T1 construct: made in house; host or cells: Yarrowia lipolytica
Method: The IC50 (concentration of a substance that causes 50% inhibition of the enzyme activity) was measured by PMS/MTT assay [phenazine methosulphate/3-(4,5-dimethylthiazol-2-yl)-2,5-diphenyltetrazolium bromide]. The assay was performed in 96-well microtiter plates. Each well contained a reaction mixture with a final concentration of: 0.1 M KH2PO4, pH 7.4, 1 mM MTT, 0.2 mM PMS, tested substance in a concentration range of 0.1 nM - 1 µM and 10 µM N^6-isopentenyladenine (iP) as a substrate. To this reaction mixture 100 µL of medium containing the active enzyme ZmCKX1 was added. The enzyme was produced by the yeast Yarrowia lipolytica and isolated according to the protocol (Kopečný D. et al., 2005, […] 87:1011-1022). The plates were incubated for 30 min at 37 °C and the enzymatic reaction was stopped by the addition of 25 µL of 35% acetic acid. Then, the absorbance at 578 nm was measured on a spectrophotometer, and the absorbance of the sample without the substrate was substracted as a reference value. The IC50 value was determined from the concentration-dependent curves in GraphPad Prism software. The values shown in Table 1 are the average of at least two measurements each performed in three repetitions. […] This also applies to 3,5-DCl-Ph-U derivatives.

[2] = system: segments of wheat leaves (Triticum aestivum cv. Hereward); assay: wheat leaf senescence assay performed in the dark (chlorophyll retention in detached leaf segments); type: in vivo; conditions: 10 micromolar, 96 hours in the dark at 25 °C, compared to yellow control (0,2% DMSO); for activation at 10 µM: Triticum aestivum, foliar, read-out: (% of chlorophyll above control)
Method: Seeds of winter wheat (Triticum aestivum cv. Hereward) was washed under running water for 4 hours and then sown in vermiculite saturated with Knop's nutrient solution. The trays with seeds were placed in an air-conditioned growth chamber with a 16/8 hour light regime (light intensity 50 µmol.m^-2.s^-1) and a temperature of 15 °C. After 7 days, the seedlings had developed the first […] and the second leaf began to grow. Top sections approximately 4 cm long were excised from the first leaves of 4 plants and their combined weight was adjusted to exactly 100 mg. The basal ends of these 4 leaf segments were placed in the wells of microtiter polystyrene plates containing solution (150 µL) of the tested derivative. The plates were placed in a plastic box with filter paper, which was saturated with water (to maintain the maximum humidity). After 96 hours of incubation in the dark at 25 °C, the leaf segments were removed and the chlorophyll was extracted to 5 mL of 80% ethanol by heating the leaf segments in ethanol at 80 °C for 40 min. The sample volume was then adjusted to 5 mL by adding 80% ethanol. The absorbance of the extracts was measured at 665 nm. Chlorophyll extracts from leaf segments incubated in deionized water (so-called yellow control) were also measured as controls. Freshly cut leaves (100 mg) were used as a green control, from which chlorophyll was extracted and measured in the same manner. The calculated values are the average of 5 replicates and the whole experiment was repeated two times. The tested compounds were dissolved in dimethyl sulfoxide (DMSO) to a concentration 10^-2 M. This stock solution was further diluted with water to a concentration of 10 micromolar. At this concentration, the substances were tested.

[3] = system: winter wheat (Triticum aestivum cv. Hereward); assay: salt-induced senescence of wheat plants; type: in vivo; conditions: 100 nM aqueous solution, 75 mM NaCl seven days after planting, assessed 30 days after planting
Method: To investigate the effects of compounds 64 and 66 on salt-induced senescence, seeds of winter wheat (Triticum aestivum cv. Hereward) were washed under running water for 4 hours and then sown on perlite soaked with water (control) or 100 nM aqueous solution of compounds 64 or 66. Trays with seeds were placed in a growth chamber at 25 °C for 16/8 h light/dark at an intensity of 50 µmol.m^-2.s^-1. Seven days after planting, the plants were treated with 75 mM NaCl solution. The plants were allowed to grow and the plant damage was assessed 30 days after planting.
While untreated plants have the first leaves dead and the second leaves yellow, plants treated with CKX inhibitors have the first leaves yellowing and the second leaves green. […] This in vivo experiment is evidence that CKX inhibitors prolong the photosynthetic activity of wheat plants that have been exposed to environmental stress.

[4] = 10 µM N6-isopentenyladenine (iP) as substrate, pH 7.4, 30 min at 37 °C, average of at least two measurements, read-out: IC50 (µM) ZmCKX1

T1 sequence (Q9T0N8 19-534): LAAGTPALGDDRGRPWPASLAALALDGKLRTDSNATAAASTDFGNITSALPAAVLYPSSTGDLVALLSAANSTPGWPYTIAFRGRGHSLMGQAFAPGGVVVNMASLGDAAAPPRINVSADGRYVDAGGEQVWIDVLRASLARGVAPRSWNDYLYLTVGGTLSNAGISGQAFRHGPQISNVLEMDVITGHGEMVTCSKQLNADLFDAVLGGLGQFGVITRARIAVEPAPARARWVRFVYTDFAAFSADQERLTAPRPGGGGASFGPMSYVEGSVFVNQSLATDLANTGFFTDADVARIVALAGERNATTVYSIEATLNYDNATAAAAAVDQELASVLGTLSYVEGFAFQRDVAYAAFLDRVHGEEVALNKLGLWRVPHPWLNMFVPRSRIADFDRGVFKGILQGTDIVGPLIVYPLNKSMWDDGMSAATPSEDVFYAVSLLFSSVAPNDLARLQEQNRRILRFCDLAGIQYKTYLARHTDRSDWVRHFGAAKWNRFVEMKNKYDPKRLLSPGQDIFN

Structure (SMILES)	IC50 [1, 4] [µM]	activation at 10 µM [2] [%]	also measured
O=C(Nc1cc(Br)cc(OC(F)(F)F)c1)Nc1ccccc1CCO [Compound 65, 1-(3-Bromo-5-trifluoromethoxyphenyl)-3-[2-(2-hydroxyethyl)phenyl]urea]	–	–	IC50 [1]: 0.035 µM; (% of chlorophyll above control) [2]: 30%
CSc1cccc(NC(=O)Nc2cc(Br)ccc2CO)c1 [Compound 27, 1-(5-bromo-2-hydroxy-methylphenyl)-3-(3-methylsulphanylphenyl)urea]	–	–	IC50 [1]: 0.17 µM; (% of chlorophyll above control) [2]: 26%
COc1cccc(NC(=O)Nc2cc(Br)ccc2CCO)c1 [Compound 53]	0.074	–	(% of chlorophyll above control) [2]: 35%
O=C(Nc1ccccc1)Nc1ccnc(Cl)c1 [CPPU, 1-(2-chloropyridin-4-yl)-3phenylurea, reference compound]	–	12	IC50 [1]: 20.5 µM
O=C(Nc1cc(Cl)nc(Cl)c1)Nc1cc(Cl)ccc1CO [Compound 6, 1-(5-chloro-2-hydroxymethylphenyl)-3-(2,6-dichloropyridin-4-yl)urea]	0.1	29	–
O=C(Nc1cc(F)nc(F)c1)Nc1cc(Cl)ccc1CCO [Compound 11, 1-[5-chloro-2-(2-hydroxyethyl)phenyl]-3-(2,6-difluoropyridin-4-yl)urea]	0.095	31	–
O=C(Nc1ccnc(F)c1)Nc1cc(Cl)ccc1CO [Compound 2, 1-(5-chloro-2-hydroxymethylphenyl)-3-(2-fluoropyridin-4-yl)urea]	0.27	23	–
COc1cccc(NC(=O)Nc2cc(Cl)ccc2CCO)c1 [Compound 52, 1-[5-chloro-2-(2-hydroxyethyl)phenyl]-3-(3-methoxyphenyl)urea]	0.066	37	–
CSc1cccc(NC(=O)Nc2cc(Cl)ccc2CCO)c1 [Compound 60, 1-[5-chloro-2-(2-hydroxyethyl)phenyl]-3-(3-methylsulphanylphenyl)urea]	0.035	36	–
O=C(Nc1cc(NCCO)cc(OC(F)(F)F)c1)Nc1ccccc1CCO [Compound 66, 1-[3-(2-Hydroxyethylamino)-5-trifluoromethoxyphenyl]-3-[2-(2-hydroxyethyl)phenyl]urea]	0.029	36	plant damage and senescence under salinity stress [3]: reduced the damage and delayed the senescence; total chlorophyll content in whole plants: untreated salinity-stressed plants have less chlorophyll than treated stressed plants [3]: 27%
O=C(Nc1cccc(OC(F)(F)F)c1)Nc1cc(Cl)ccc1CCO [Compound 62, 1-[5-chloro-2-(2-hydroxyethyl)phenyl]-3-(3-trifluoromethoxyphenyl)urea]	0.021	39	–
NCCNc1cc(NC(=O)Nc2cc(Cl)ccc2CO)cc(OC(F)(F)F)c1 [Compound 40, 1-(5-chloro-2-hydroxymethylphenyl)-3-[3-(2-aminoethylamino)-5-trifluoromethoxyphenyl]urea]	0.01	39	–
COc1cc(NC(=O)Nc2cc(Br)ccc2CO)ccn1 [Compound 8, 1-(5-bromo-2-hydroxy-methylphenyl)-3-(2-methoxypyridin-4-yl)urea]	–	–	IC50 [1]: 0.13 µM; (% of chlorophyll above control) [2]: 25%
COc1cc(NCCN)cc(NC(=O)Nc2cc(Cl)ccc2CCO)c1 [Compound 59, 1-[5-chloro-2-(2-hydroxyethyl)phenyl]-3-[3-(2-aminoethylamino)-5-methoxyphenyl]urea]	0.008	48	–
COc1cc(NCCN)cc(NC(=O)Nc2cc(Cl)ccc2CO)c1 [Compound 25, 1-(5-chloro-2-hydroxymethylphenyl)-3-[3-(2-aminoethylamino)-5-methoxyphenyl]urea]	0.024	45	–
O=C(Nc1cccc(OC(F)(F)F)c1)Nc1cc(Br)ccc1CO [Compound 34, 1-(5-Bromo-2-hydroxymethylphenyl)-3-(3-trifluoromethoxyphenyl)urea]	–	–	IC50 [1]: 0.1 µM; (% of chlorophyll above control) [2]: 32%
COc1cc(Br)cc(NC(=O)Nc2ccccc2CO)c1 [Compound 22, 1-(3-bromo-5-methoxyphenyl)-3-(2-hydroxymethylphenyl)urea]	–	–	IC50 [1]: 0.26 µM; (% of chlorophyll above control) [2]: 25%
COc1cc(NC(=O)Nc2cc(Cl)cc(Cl)c2CCO)ccn1 [Compound 16, 1-[3,5-dichloro-2-(2-hydroxyethyl)phenyl]-3-(2-methoxypyridin-4-yl)urea]	0.081	35	–
O=C(Nc1cc(Cl)cc(OC(F)(F)F)c1)Nc1ccccc1CCO [Compound 64, 1-(3-Chloro-5-trifluoromethoxyphenyl)-3-[2-(2-hydroxyethyl)phenyl]urea]	–	–	IC50 [1]: 0.058 µM; plant damage and senescence under salinity stress [3]: reduced the damage and delayed the senescence; total chlorophyll content in whole plants: untreated salinity-stressed plants have less chlorophyll than treated stressed plants [3]: 27%
O=C(Nc1cccc(SC(F)(F)F)c1)Nc1ccccc1CCO [Compound 68, 1-[2-(2-Hydroxyethyl)phenyl]-3-(3-trifluoromethylsulphanylphenyl)urea]	0.074	34	–
O=C(Nc1cccc(OC(F)(F)F)c1)Nc1cc(F)ccc1CO [Compound 32, 1-(5-fluoro-2-hydroxymethylphenyl)-3-(3-trifluoromethoxyphenyl)urea]	0.11	–	–
COc1cc(NCCO)cc(NC(=O)Nc2ccccc2CCO)c1 [Compound 57, 1-[3-(2-hydroxyethylamino)-5-methoxyphenyl]-3-[2-(2-hydroxyethyl)phenyl]urea]	0.16	–	–
O=C(Nc1cccc(SC(F)(F)F)c1)Nc1cc(F)ccc1CO [Compound 42, 1-(5-fluoro-2-hydroxymethylphenyl)-3-(3-trifluoromethylsulphanylphenyl)urea]	0.08	25	–
COc1cccc(NC(=O)Nc2cc(F)ccc2CCO)c1 [Compound 51, 1-[5-fluoro-2-(2-hydroxyethyl)phenyl]-3-(3-methoxyphenyl)urea]	0.08	30	–
O=C(Nc1cc(Br)cc(Br)c1)Nc1ccccc1CO [Compound 19, 1-(3,5-dibromophenyl)-3-(2-hydroxymethylphenyl)urea]	0.33	–	–
NCCNc1cc(NC(=O)Nc2ccccc2CO)cc(OC(F)(F)F)c1 [Compound 39, 1-[3-(2-aminoethylamino)-5-trifluoromethoxyphenyl]-3-(2-hydroxymethylphenyl)urea]	0.095	–	–
O=C(Nc1cc(F)nc(F)c1)Nc1ccccc1CO [Compound 3, 1-(2,6-difluoropyridin-4-yl)-3-(2-hydroxymethylphenyl)urea]	0.82	–	–
COc1cc(NCCN)cc(NC(=O)Nc2ccccc2CO)c1 [Compound 24, 1-[3-(2-aminoethylamino)-5-methoxyphenyl]-3-(2-hydroxymethylphenyl)urea]	0.18	–	–
COc1cc(NC(=O)Nc2ccccc2CO)ccn1 [Compound 7, 1-(2-methoxypyridin-4-yl)-3-(2-hydroxymethylphenyl)urea]	1.1	–	–
O=C(Nc1cccc(OC(F)(F)F)c1)Nc1cc(Cl)ccc1CO [Compound 33, 1-(5-Chloro-2-hydroxymethylphenyl)-3-(3-trifluoromethoxyphenyl)urea]	0.06	–	–

— patent publication EP4121415B1, “INHIBITORS OF CYTOKININ OXIDASE DERIVED FROM 1-[2-(HYDROXYALKYL)PHENYL]-3-YLUREA, USE THEREOF AND PREPARATIONS CONTAINING THESE DERIVATIVES” (Univerzita Palackého v Olomouci, priority 2020, dated 2021)
